# Laboratory results published in patent publication US20250034170A1, “SMALL MOLECULE MODULATORS OF GLUCOCEREBROSIDASE ACTIVITY AND USES THEREOF” (Vanqua Bio, Inc., priority 2021, published 2025).
# Biological target: T1, GCase (Homo sapiens, UniProt P04062)
# T1 construct: endogenous in cells; host or cells: HeLa cells
# T1 sequence (P04062 40-536): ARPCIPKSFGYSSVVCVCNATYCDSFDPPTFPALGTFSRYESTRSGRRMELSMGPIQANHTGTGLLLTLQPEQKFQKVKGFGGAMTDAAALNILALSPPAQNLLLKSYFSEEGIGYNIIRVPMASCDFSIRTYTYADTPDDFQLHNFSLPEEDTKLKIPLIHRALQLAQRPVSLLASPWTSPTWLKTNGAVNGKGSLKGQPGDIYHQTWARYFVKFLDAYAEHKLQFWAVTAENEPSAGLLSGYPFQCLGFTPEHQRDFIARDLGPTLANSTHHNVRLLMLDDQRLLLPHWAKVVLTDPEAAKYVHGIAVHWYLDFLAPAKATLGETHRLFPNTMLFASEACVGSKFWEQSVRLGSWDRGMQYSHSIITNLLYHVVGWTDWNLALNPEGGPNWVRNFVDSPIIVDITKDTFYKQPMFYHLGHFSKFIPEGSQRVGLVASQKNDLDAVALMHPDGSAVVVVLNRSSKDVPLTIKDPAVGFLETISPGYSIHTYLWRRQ
# Assay: activation of GCase in a live cell PFB assay in HELA cells
# Format: cell-based
# Experimental: Exemplary compounds were evaluated for activation of GCase in a live cell PFB assay in HELA cells (essentially as described in Ysselstein et al., “LRRK2 kinase activity regulates lysosomal glucocerebrosidase in neurons derived from Parkinson's disease patients” Nature Communications (2019) 10:5570). […] EC50 ranges: A: <10 μM; B: >10-50 μM; C: >50-100 μM; D: >100 μM.
# [1] = activation of GCase, EC50 ranges
EC50 [1],EC50 (EC50 given as range classes),SMILES
< 10 µM,–,"CC1(C)C(=O)N(c2cc(C(F)(F)F)ccn2)CC12CCN(c1cnc3cnn(CC(F)F)c3n1)CC2 [Compound 73, 8-(1-(2,2-difluoroethyl)-1H-pyrazolo[3,4-b]pyrazin-6-yl)-4,4-dimethyl-2-(4-(trifluoromethyl)pyridin-2-yl)-2,8-diazaspiro[4.5]decan-3-one]"
10 to 50 µM,–,FC(F)Cn1ncc2ncc(N3CCC4(CN(c5cnc(OCC(F)(F)F)nc5)C4)C3)nc21 [Cmpd 439]
–,< 10 µM,Cc1ccccc1C(=O)N1CC2(CCN(c3cnc4cnn(CC(F)F)c4n3)C2)C1 [Cmpd 384]
< 10 µM,–,"O=C1N(c2cnc3cnn(CC(F)F)c3n2)CCC12CCN(c1cncc(C(F)(F)F)c1)CC2 [Compound 122, 2-[1-(2,2-difluoroethyl)-1H-pyrazolo[3,4-b]pyrazin-6-yl]-8-[5-(trifluoromethyl)pyridin-3-yl]-2,8-diazaspiro[4.5]decan-1-one]"
–,10 to 50 µM,Cc1nn(CC(F)(F)F)c2nc(N3CCC4(CCN(c5cnc(C(F)(F)F)nc5)C4)C3)ncc12 (centres unmarked) [Cmpd 615]
–,> 100 µM,CCOCCN1C(=O)N(c2cc(C(F)(F)F)ccn2)C(=O)C12CCN(c1cnc3cnn(CC(F)F)c3n1)CC2 [Cmpd 822]
< 10 µM,–,Cc1nn(CC(F)F)c2nc(N3CCC4(CCN(c5ccc(C(F)(F)F)nc5)C4)CC3)cnc12 [Cmpd 257]
> 100 µM,–,Cc1cnc(C(F)(F)F)cc1N1CC2(CCN(c3cnc4cnn(C5COC5)c4n3)C2)C1 [Cmpd 1042]
10 to 50 µM,–,Cc1nc(C(F)(F)F)nc(N2CC3(CCN(c4cnc5cnn(CC(F)F)c5n4)C3)C2)c1F [Cmpd 1138]
< 10 µM,–,O=C1N(c2nnc(C(F)(F)F)s2)CCC12CCN(c1cnc3cnn(CC(F)F)c3n1)CC2 [Cmpd 840]
10 to 50 µM,–,FC(F)Cn1ncc2ncc(N3CCC4(C3)CN(c3nnc(C(F)(F)F)s3)C4)nc21 [Cmpd 1046]
–,10 to 50 µM,Cc1ncc(N2CCC3(CCN(c4cnc5c(C)nn(CC(F)F)c5n4)CC3)C2)c(C(F)(F)F)n1 [Cmpd 602]
10 to 50 µM,–,Cc1nc(N2CC3(CCN(c4cnc5cnn(CC(F)F)c5n4)CC3)CC2=O)cc(C(F)(F)F)n1 [Cmpd 513]
10 to 50 µM,–,CCc1sc(C(F)(F)F)nc1N1CC2(CCN(c3cnc4cnn(CC(F)F)c4n3)CC2)CC1=O [Cmpd 973]
10 to 50 µM,–,Cc1nc(N2CC3(CCN(c4ncc5cnn(C6COC6)c5n4)CC3)C2)cc(C(F)(F)F)n1 [Cmpd 562]
10 to 50 µM,–,FC(F)(F)c1ccc(N2CCC3(CCN(c4cncc(N5CCOCC5)n4)CC3)C2)cn1 [Cmpd 249]
< 10 µM,–,Cc1nc(N2CCC3(CCN(c4cnc5cnn(CC(F)F)c5n4)C3)C2)cc(C(F)(F)F)n1 (centres unmarked) [Cmpd 521]
< 10 µM,–,O=C1CC2(CCN(c3ncc4cnn(CC(F)F)c4n3)CC2)CN1c1nccc(C(F)(F)F)n1 [Cmpd 290]
10 to 50 µM,–,CCC1N(c2ccc(C(F)(F)F)nc2)C(=O)CC12CCN(c1cnc3cnn(C4COC4)c3n1)CC2 (centres unmarked) [Cmpd 858]
10 to 50 µM,–,Cc1nn(CC(F)F)c2nc(N3CCC4(CC3)CCN(c3cc(C(F)(F)F)ccn3)C4=O)ncc12 [Cmpd 301]

EC50 [1],EC50 (EC50 given as range classes),SMILES
–,< 10 µM,O=C1N(c2cnc3cnn(CC(F)F)c3n2)CCC12CC1CCC(C2)N1c1ccc(C(F)(F)F)nc1 (centres unmarked) [Cmpd 803]
10 to 50 µM,–,Cc1nn(C2COC2)c2nc(N3CCC4(CC3)CN(c3cc(C(F)(F)F)ccn3)C4)cnc12 [Cmpd 480]
< 10 µM,–,CCC1N(c2ccnc(C(F)(F)F)n2)C(=O)CC12CCN(c1cnc3cnn(CC(F)F)c3n1)CC2 (centres unmarked) [Cmpd 904]
< 10 µM,–,Cc1nc(N2CC3(CCN(c4cnc5cnn(CC(F)F)c5n4)CC3)C2)cc(C(F)(F)F)n1 [Cmpd 522]
10 to 50 µM,–,CC[C@H]1N(c2ccnc(C(F)(F)F)c2)C(=O)CC12CCN(c1cnc3cnn(CC(F)F)c3n1)CC2 [Cmpd 854]
10 to 50 µM,–,COc1cc(N2CC3(CCN(c4cnc5cnn(CC(F)F)c5n4)C3)C2)ccn1 [Cmpd 929]
10 to 50 µM,–,CCOc1nn(CC(F)F)c2nc(N3CCC4(CC3)CC(=O)N(c3ccc(C(F)(F)F)nc3)C4)ncc12 [Cmpd 949]
10 to 50 µM,–,O=C1N(c2cnccc2C(F)(F)F)CCC12CCN(c1cnc3cnn(CC(F)F)c3n1)CC2 [Cmpd 675]
< 10 µM,–,Cn1c(N2CCC3(CCN(c4cnc5cnn(CC(F)F)c5n4)CC3)C2=O)cc(=O)cc1C(F)(F)F [Cmpd 666]
–,< 10 µM,Cc1nc(N2CC3(CCN(c4ccc5cnn(CC(F)F)c5n4)CC3)CC2=O)cc(C(F)(F)F)n1 [Cmpd 627]
10 to 50 µM,–,O=C1N(c2cnc3cnn(CC(F)F)c3n2)CCC12CCN(c1ccc(C(F)(F)F)nc1)C2 (centres unmarked) [Cmpd 519]
10 to 50 µM,–,O=C1N(Cc2cnc(C(F)(F)F)cn2)CCC12CCN(c1cnc3cnn(CC(F)F)c3n1)CC2 [Cmpd 927]
< 10 µM,–,O=C1N(Cc2ccnc(C(F)(F)F)n2)CCC12CCN(c1cnc3cnn(CC(F)F)c3n1)CC2 [Cmpd 844]
10 to 50 µM,–,"O=C1N(c2cnc3cnn(CC(F)F)c3n2)CCC12CCN(c1ccnc(C(F)(F)F)c1)CC2 [Compound 118, 2-[1-(2,2-difluoroethyl)-1H-pyrazolo[3,4-b]pyrazin-6-yl]-8-[2-(trifluoromethyl)pyridin-4-yl]-2,8-diazaspiro[4.5]decan-1-one]"
10 to 50 µM,–,Cc1nc(N2CC3(CCN(c4cnc5c(C)nn(C6COC6)c5n4)C3)C2)cc(C(F)(F)F)n1 [Cmpd 455]
10 to 50 µM,–,Cc1nc(N2CC3(CCN(c4cnc5c(C)nn(CC(C)(F)F)c5n4)C3)C2)cc(C(F)(F)F)n1 [Cmpd 1128]
10 to 50 µM,–,"O=C1CCC2(CN(c3cnc4cnn(CC(F)F)c4n3)C2)CN1c1cccc(C(F)(F)F)n1 [Compound 114, 2-[1-(2,2-difluoroethyl)-1H-pyrazolo[3,4-b]pyrazin-6-yl]-6-[6-(trifluoromethyl)pyridin-2-yl]-2,6-diazaspiro[3.5]nonan-7-one]"
10 to 50 µM,–,"FC(F)Cn1ncc2ncc(N3CCCC4(CN(c5ccc(C(F)(F)F)nc5)C4)C3)nc21 [Compound 37, 6-[1-(2,2-difluoroethyl)-1H-pyrazolo[3,4-b]pyrazin-6-yl]-2-[6-(trifluoromethyl)pyridin-3-yl]-2,6-diazaspiro[3.5]nonane]"
–,10 to 50 µM,Cc1nc(N2CCC3(CC2)CN(c2cnc4cnn(C5COC5)c4n2)C3)cc(C(F)(F)F)n1 [Cmpd 584]
50 to 100 µM,–,COc1nccc(CN2CC3(CCN(c4cnc5cnn(CC(F)F)c5n4)CC3)CC2=O)n1 [Cmpd 970]

EC50 [1],EC50 (EC50 given as range classes),SMILES
< 10 µM,–,O=C1N(Cc2cc(C(F)(F)F)ccn2)CCC12CCN(c1cnc3cnn(CC(F)F)c3n1)CC2 [Cmpd 355]
50 to 100 µM,–,Cc1nc(N2CC3(CCN(c4cncc(-c5cnn(CC(F)F)c5)n4)C3)C2)cc(C(F)(F)F)n1 [Cmpd 1124]
–,> 100 µM,Cc1ncc(N2CC3(CCN(c4cnc5cnn(CC(F)(F)F)c5n4)C3)C2)c(C(F)(F)F)n1 [Cmpd 594]
10 to 50 µM,–,Cc1nc(N2CC3(CCN(c4nc5c(cnn5CC(F)F)c(=O)n4CC4CC4)C3)C2)cc(C(F)(F)F)n1 [Cmpd 1113]
10 to 50 µM,–,O=C1CC2(CCN(c3cnc4cnn(CC(F)F)c4n3)CC2)CN1Cc1cnc(C(F)(F)F)s1 [Cmpd 369]
–,< 10 µM,CCc1cnc(C(F)(F)F)cc1N1CC2(CCN(c3cnc4cnn(CC(F)F)c4n3)C2)C1 [Cmpd 1032]
< 10 µM,–,CCc1nn(CC(F)F)c2nc(N3CCC4(CN(c5ccnc(C(F)(F)F)c5)C4)C3)ncc12 [Cmpd 1071]
–,10 to 50 µM,FC(F)Cn1ncc2ncc(NC3CCC4(CC3)CN(c3ccc(C(F)(F)F)cn3)C4)nc21 [Cmpd 198]
10 to 50 µM,–,O=C1CC2(CCN(c3cnc4cnn(CC(F)F)c4n3)CC2)CN1Cc1ccc(C(F)(F)F)cn1 [Cmpd 309]
< 10 µM,–,Cc1nc(N2CC3(CCN(c4nc5c(cnn5CC(F)F)c(=O)n4CC(C)C)C3)C2)cc(C(F)(F)F)n1 [Cmpd 1112]
10 to 50 µM,–,"FC(F)Cn1ncc2ncc(NC3CCC4(CC3)CN(c3cccc(C(F)(F)F)n3)C4)nc21 [Compound 130, N-[1-(2,2-difluoroethyl)-1H-pyrazolo[3,4-b]pyrazin-6-yl]-2-[6-(trifluoromethyl)pyridin-2-yl]-2-azaspiro[3.5]nonan-7-amine]"
10 to 50 µM,–,O=C1N(Cc2ccc(C(F)(F)F)cn2)CCC12CCN(c1cnc3cnn(CC(F)F)c3n1)CC2 [Cmpd 310]
< 10 µM,–,Cc1nc(N2CC3(CC(=O)N(c4cnc5cnn(CC(F)F)c5n4)C3)C2)cc(C(F)(F)F)n1 [Cmpd 525]
10 to 50 µM,–,Cc1nc(C(F)(F)F)ncc1N1CCC2(CCN(c3nc4c(cnn4CC(F)F)c(=O)n3C)CC2)C1 [Cmpd 1086]
10 to 50 µM,–,Cc1cnc(N2CC3(CCN(c4cnc5cnn(CC(F)F)c5n4)C3)C2)cn1 [Cmpd 1039]
–,50 to 100 µM,FC(F)(F)c1cc(N2CC3(CCN(c4cncc(-c5nnc(C(F)(F)F)o5)n4)C3)C2)ccn1 [Cmpd 1024]
10 to 50 µM,–,"FC(F)Cn1ncc2ncc(N3CC4(CCN(c5cccc(C(F)(F)F)n5)CC4)C3)nc21 [Compound 125, 2-[1-(2,2-difluoroethyl)-1H-pyrazolo[3,4-b]pyrazin-6-yl]-7-[6-(trifluoromethyl)pyridin-2-yl]-2,7-diazaspiro[3.5]nonane]"
–,< 10 µM,Cc1nc(N2CCC3(CCN(c4ccc5c(C)nn(CC(F)F)c5n4)CC3)C2)cc(C(F)(F)F)n1 [Cmpd 626]
> 100 µM,–,FC(F)(F)c1cc(N2CC3(CCN(c4cnc5cnn(C6CCOCC6)c5n4)C3)C2)ccn1 [Cmpd 1090]
